Test results published in patent US20260356860A1, “2-SUBSTITUTED 3,4A,5,7,8,8A-HEXAHYDRO-4H-THIOPYRANO[4,3-DJPYRIMIDIN-4-ONES FOR WOUND TREATMENT” (priority 2022, published 2026).

These compounds were tested against T1, Tankyrase 2 (TNKS2) (Homo sapiens, UniProt Q9H2K2) (assay: TNK2 Binding Assay (Tankyrase 2 ribosylation, chemiluminescence)).
T1 sequence (Q9H2K2 1-1166): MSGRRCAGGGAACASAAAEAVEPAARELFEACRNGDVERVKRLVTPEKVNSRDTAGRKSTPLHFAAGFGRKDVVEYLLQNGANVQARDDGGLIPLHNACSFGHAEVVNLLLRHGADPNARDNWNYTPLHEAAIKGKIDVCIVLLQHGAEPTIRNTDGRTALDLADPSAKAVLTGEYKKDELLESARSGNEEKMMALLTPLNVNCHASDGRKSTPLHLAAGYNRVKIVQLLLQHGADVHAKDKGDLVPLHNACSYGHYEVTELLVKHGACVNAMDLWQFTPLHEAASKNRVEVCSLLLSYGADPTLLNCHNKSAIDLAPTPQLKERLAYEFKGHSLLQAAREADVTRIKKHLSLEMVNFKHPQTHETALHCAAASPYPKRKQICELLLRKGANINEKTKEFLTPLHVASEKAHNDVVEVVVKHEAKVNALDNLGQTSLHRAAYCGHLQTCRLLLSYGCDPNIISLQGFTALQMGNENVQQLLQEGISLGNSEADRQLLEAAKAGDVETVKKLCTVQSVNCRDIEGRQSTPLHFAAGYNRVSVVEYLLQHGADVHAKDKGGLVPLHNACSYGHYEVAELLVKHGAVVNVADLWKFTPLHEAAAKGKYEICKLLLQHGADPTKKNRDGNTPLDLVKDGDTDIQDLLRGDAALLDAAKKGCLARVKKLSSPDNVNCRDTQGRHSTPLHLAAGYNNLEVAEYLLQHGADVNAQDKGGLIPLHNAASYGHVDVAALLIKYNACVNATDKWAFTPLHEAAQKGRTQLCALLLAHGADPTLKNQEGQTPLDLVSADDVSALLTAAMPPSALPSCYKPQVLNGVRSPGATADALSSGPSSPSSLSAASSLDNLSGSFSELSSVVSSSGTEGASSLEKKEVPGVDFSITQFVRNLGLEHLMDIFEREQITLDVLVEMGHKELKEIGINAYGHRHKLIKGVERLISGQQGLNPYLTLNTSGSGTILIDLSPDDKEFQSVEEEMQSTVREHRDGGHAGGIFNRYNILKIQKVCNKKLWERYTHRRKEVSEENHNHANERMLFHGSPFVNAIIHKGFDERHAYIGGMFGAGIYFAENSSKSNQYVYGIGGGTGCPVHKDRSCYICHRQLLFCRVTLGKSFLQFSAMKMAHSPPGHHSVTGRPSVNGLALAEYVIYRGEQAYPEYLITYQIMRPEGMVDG
Format: biochemical
Experimental: Tankyrase 2 assay (n=3) was performed with the following steps: step 1, coating a 96-well plate with 50 μL/well of histone solution; step 2, conducting ribosylation reaction; and step 3, detection.
Step 1: Coating a 96-Well Plate with 50 μL/Well of Histone Solution.
A 5× histone mixture was diluted 1:5 with PBS to make a 1× histone in PBS mixture. 50 μL of the histone mixture was added to each well and incubated at 4° C. overnight. The plate was washed three times using 200 μL PBST buffer (1×PBS containing 0.05% Tween*20 (polysorbate 20) per well. The plate was tapped onto a clean paper towel to remove the liquid. The wells were blocked by adding 200 μL of blocking buffer 3 to each well. The plate was incubated at room temperature for at least 90 minutes. The plate was washed three times with 200 μL PBST buffer. The plate was tapped onto a clean paper towel to remove the liquid.
A fresh solution of 10 mM DTT in water was prepared.
A master mix was prepared and delivered to each well (25 μL/well). Master mix delivered to each well: (2.5 μL of 10×PARP assay buffer (purchased from BPS Bioscience)+2.5 μL of PARP substrate mixture 2+17.5 μL of water+2.5 μL of 10 mM fresh DTT). The concentration of DTT in the master mix was 1 mM. 25 μL of master mix was added to each well.
1×PARP buffer with DTT was prepared. 10×PARP assay buffer was diluted to 1×PARP assay buffer containing DTT by adding 1 volume of 10×PARP assay buffer+1 volume of 10 mM DTT+8 volumes of water. The concentration of DTT in the 1×PARP assay buffer was 1 mM.
5 μL of a test inhibitor was added to each well labeled as “Test Inhibitor.” For the “Positive Control,” the PARP inhibitor, XAV939, was used. For the negative control, no inhibitor is added to the assay mix.
The Tankyrase 2 (TNKS2) enzyme on ice was thawed. The tube containing the enzyme was spun briefly to recover the full content of the tube. The amount of TNKS2 enzyme required for the assay was calculated and the enzyme was diluted to 0.5 ng/μL with 1×PARP assay buffer with DTT. 16) The final concentration of TNKS2 enzyme in the assay was 2 nM. The reaction was initiated by adding 10 μL of diluted TNKS2 enzyme to each well designated “Positive Control” and “Test Inhibitor.” To each well designated as “Blank,” 10 μL of 1×PARP assay buffer with DTT was added. The plate was incubated at room temperature for 1 hour. The plate was washed three times with 100 μL of PBST buffer and the plate was tapped onto a clean paper towel.
1) Streptavidin-HRP was diluted 1:50 in Blocking buffer (purchased from BPS Bioscience) 3.50 μL of diluted Streptavidin-RP was added to each well and incubated for 30 minutes at room temperature. The plate was washed three times with 100 μL of PBST buffer and tapped onto a clean paper towel. Just before use, 1 volume of ELISA ECL Substrate A and 1 volume of ELISA ECL Substrate B were mixed on ice; and 100 μL was added to each well. Immediately, the plate was read in a luminometer or microtiter-plate reader capable of reading chemiluminescence. The “Blank” value was subtracted from all other values.

**Q.** How did the IC50 turn out when `CC(C)(OCCO)c1c(F)cc(-c2nc3c(c(=O)[nH]2)CSCC3)cc1F` [Compound 15, 2-(3,5-difluoro-4-(2-(2-hydroxyethoxy)propan-2-yl)phenyl)-3,5,7,8-tetrahydro-4H-thiopyrano[4,3-d]pyrimidin-4-one] was run?
**A.** 90 nM

**Q.** How did the IC50 turn out when `O=c1[nH]c(-c2ccc(-c3ccc(Br)nc3)c(F)c2)nc2c1CSCC2` [Compound 20, 2-(4-(6-bromopyridin-3-yl)-3-fluorophenyl)-3,5,7,8-tetrahydro-4H-thiopyrano[4,3-d]pyrimidin-4-one] was run?
**A.** 4 nM

**Q.** With `O=c1[nH]c(-c2ccc(-c3ccnc(Br)c3)cc2)nc2c1CSCC2` [Compound 23, 2-(4-(2-bromopyridin-4-yl)phenyl)-3,5,7,8-tetrahydro-4H-thiopyrano[4,3-d]pyrimidin-4-one] as the compound, how does the IC50 read?
**A.** 14 nM

**Q.** `O=c1[nH]c(-c2ccc(B(O)O)c(O)c2)nc2c1CSCC2` [Compound 30, (2-hydroxy-4-(4-oxo-3,5,7,8-tetrahydro-4H-thiopyrano[4,3-d]pyrimidin-2-yl)phenyl)boronic acid] was tested. Which IC50 did it give?
**A.** 20 nM

**Q.** How did the IC50 turn out when `O=c1[nH]c(-c2ccc(B(O)O)cc2O)nc2c1CSCC2` [Compound 31, (3-hydroxy-4-(4-oxo-3,5,7,8-tetrahydro-4H-thiopyrano[4,3-d]pyrimidin-2-yl)phenyl)boronic acid] was run?
**A.** 3530 nM

**Q.** With `COc1cc(-c2nc3c(c(=O)[nH]2)CSCC3)ccc1B(O)O` [Compound 32, (2-methoxy-4-(4-oxo-3,5,7,8-tetrahydro-4H-thiopyrano[4,3-d]pyrimidin-2-yl)phenyl)boronic acid] as the compound, how does the IC50 read?
**A.** 111 nM

**Q.** Which IC50 does the source give for `COC(=O)NCCOC(C)(C)c1ccc(-c2nc3c(c(=O)[nH]2)CSCC3)cc1O` [Compound 33, methyl (2-((2-(2-hydroxy-4-(4-oxo-3,5,7,8-tetrahydro-4H-thiopyrano[4,3-d]pyrimidin-2-yl)phenyl)propan-2-yl)oxy)ethyl)carbamate] here?
**A.** 12 nM

**Q.** Which IC50 does the source give for `COC(=O)NCCOC(C)(C)c1ccc(-c2nc3c(c(=O)[nH]2)CSCC3)cc1OC` [Compound 34, methyl (2-((2-(2-methoxy-4-(4-oxo-3,5,7,8-tetrahydro-4H-thiopyrano[4,3-d]pyrimidin-2-yl)phenyl)propan-2-yl)oxy)ethyl)carbamate] here?
**A.** 164 nM

**Q.** With `COC(=O)NCCOC(C)(C)c1ccc(-c2nc3c(c(=O)[nH]2)CSCC3)cc1C` [Compound 35, methyl (2-((2-(2-methyl-4-(4-oxo-3,5,7,8-tetrahydro-4H-thiopyrano[4,3-d]pyrimidin-2-yl)phenyl)propan-2-yl)oxy)ethyl)carbamate] as the compound, how does the IC50 read?
**A.** 13 nM

**Q.** Which IC50 does the source give for `N#Cc1cc(-c2ccc(B(O)O)cc2)ccc1-c1nc2c(c(=O)[nH]1)CSCC2` [Compound 36, (3′-cyano-4′-(4-oxo-3,5,7,8-tetrahydro-4H-thiopyrano[4,3-d]pyrimidin-2-yl)-[1,1′-biphenyl]-4-yl)boronic acid] here?
**A.** 29 nM

**Q.** With `N#Cc1cc(B(O)O)ccc1-c1nc2c(c(=O)[nH]1)CSCC2` [Compound 37, (3-cyano-4-(4-oxo-3,5,7,8-tetrahydro-4H-thiopyrano[4,3-d]pyrimidin-2-yl)phenyl)boronic acid] as the compound, how does the IC50 read?
**A.** 16 nM

**Q.** `COC(=O)NCCOC(C)(C)c1ccc(-c2nc3c(c(=O)[nH]2)CSCC3)c(C#N)c1` [Compound 38, methyl (2-((2-(3-cyano-4-(4-oxo-3,5,7,8-tetrahydro-4H-thiopyrano[4,3-d]pyrimidin-2-yl)phenyl)propan-2-yl)oxy)ethyl)carbamate] was tested. Which IC50 did it give?
**A.** 72 nM

**Q.** For `COC(=O)NCCOC(C)(C)c1ccc(-c2nc3c(c(=O)[nH]2)CSCC3)cc1C#N` [Compound 39, methyl (2-((2-(2-cyano-4-(4-oxo-3,5,7,8-tetrahydro-4H-thiopyrano[4,3-d]pyrimidin-2-yl)phenyl)propan-2-yl)oxy)ethyl)carbamate], which IC50 is on record?
**A.** 650 nM

**Q.** `O=c1[nH]c(-c2ccc(B(O)O)cc2Cl)nc2c1CSCC2` [Compound 40, (3-chloro-4-(4-oxo-3,5,7,8-tetrahydro-4H-thiopyrano[4,3-d]pyrimidin-2-yl)phenyl)boronic acid] was tested. Which IC50 did it give?
**A.** 443 nM
